Measurements published in ChEMBL document CHEMBL5729033, “Macrocyclic compounds that inhibit MCL-1 protein” (2022).

Molecular target: Induced myeloid leukemia cell differentiation protein Mcl-1/Bcl-2-like protein 11 (Homo sapiens, UniProt Q07820)
Assay: Cell Free Mcl-1:Bim Affinity Assay (Mcl-1 HTRF): The inhibition of the Mcl-1/Bim interaction was measured using a time-resolved fluorescence resonance energy transfer (TR-FRET) assay. The recombinant human Mcl-1 (C-terminally 6×His tagged Mcl-1 containing residues 171-327) was generated at Amgen Inc (Thousand Oaks, Calif.). A biotinylated peptide derived from human Bim (residues 51-76) was purchased from CPC Scientific (San Jose, Calif.). The TR-FRET assay was conducted in a 384-well white OptiPlate™ (PerkinElmer, Waltham, Mass.) in a total volume of 40 μL. The reaction mixture contained 0.1 nM Mcl-1(171-327), 0.05 nM biotin-Bim(51-76), 0.05 nM LANCES Eu-W1024 Anti-6×His (PerkinElmer), 0.072 nM Streptavidin-Xlent (Cisbio, Bedford, Mass.), and serially diluted test compounds in the binding buffer of 20 mM Hepes, pH 7.5, 150 mM NaCl, 0.016 mM Brij®35, and 1 mM dithiothreitol. Test compounds were pre-incubated with Mcl-1(171-327) and biotin-Bim (51-76) for 60 min before addition of the detection mixture (LANCE® Eu-W1024 Anti-6×His and Streptavidin-Xlent). The reaction plates were further incubated overnight and then were read on an Envision® multimode reader (PerkinElmer). Fluorescence signals were measured at 620 nm (40-nm bandwidth) and 665 nm (7.5-nm bandwidth) with a 60 μs delay after excitation at 320 nm (75-nm bandwidth). […]
Type: protein assay

Induced myeloid leukemia cell differentiation protein Mcl-1/Bcl-2-like protein 11, sequence (Q07820 whole entry, the tested form may be a part): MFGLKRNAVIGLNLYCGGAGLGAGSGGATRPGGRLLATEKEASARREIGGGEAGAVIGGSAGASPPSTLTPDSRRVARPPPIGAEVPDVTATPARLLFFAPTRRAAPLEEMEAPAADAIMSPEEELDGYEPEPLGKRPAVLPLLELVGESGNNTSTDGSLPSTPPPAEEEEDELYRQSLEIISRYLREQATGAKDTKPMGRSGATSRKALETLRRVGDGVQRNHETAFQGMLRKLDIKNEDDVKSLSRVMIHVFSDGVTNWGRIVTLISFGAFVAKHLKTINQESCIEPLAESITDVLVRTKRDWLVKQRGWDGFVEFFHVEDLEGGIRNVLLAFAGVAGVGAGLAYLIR
Induced myeloid leukemia cell differentiation protein Mcl-1/Bcl-2-like protein 11, sequence (O43521 whole entry, further chain, the tested form may be a part): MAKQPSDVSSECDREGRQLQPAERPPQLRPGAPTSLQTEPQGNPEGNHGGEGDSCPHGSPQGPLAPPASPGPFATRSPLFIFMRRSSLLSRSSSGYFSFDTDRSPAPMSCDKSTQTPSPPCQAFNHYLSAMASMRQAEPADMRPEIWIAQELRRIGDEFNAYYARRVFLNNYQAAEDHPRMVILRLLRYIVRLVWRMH

IC50 [nM] | SMILES
1.42 | C[C@@H]1[C@@H](C)CCC[C@H](CN2CCN3CCN(C(=O)OC(C)(C)C)C[C@@H]3C2)[C@@H]2CC[C@H]2CN2C[C@@]3(CCCc4cc(Cl)ccc43)COc3ccc(cc32)C(=O)NS1(=O)=O
0.123 | C[C@@H]1[C@@H](C)CCC[C@@H](CC(=O)N2CCN3CCOC[C@H]3C2)[C@@H]2CC[C@H]2CN2C[C@@]3(CCCc4cc(Cl)ccc43)COc3ccc(cc32)C(=O)NS1(=O)=O
